US5017687A, “Peptides for the detection of HTLV-1 infection” (Virovahl, S.A., priority 1988, dated 1991)
“And” between values parts separate entries of the source, which are not always exact repeats. Equal values may be shown once. Ends that are not written are not given here.

Experiments:
[1] = test system: antibodies to HTLV-1; assay: ELISA immunologic reactivity of peptides gpAHTLV-1, gpBHTLV-1 and gpCHTLV-1 with human sera (Table 2); format: binding; conditions: for Mean O.D.405 of Negative Sera / cut off = Mean O.D.405 of Negative Sera + 6 × S.D.: negative sera of Table 2; for confirmed positive HTLV-1 serum samples reacted with peptide: reactive/tested, 6 HTLV-1 positive sera
Protocol: (§1) Polylysine at a concentration of 1 mg/ml was added to the microtiter plates and allowed to incubate for 30 minutes. The polylysine was then discarded and peptide gpAHTLV-1 was added to the wells in a concentration of 10 to 100 μg/ml for coating. After the peptide incubated in the well for a length of time sufficient to allow the peptide to become bonded to the well, the peptide solution was removed and a solution of glutaraldehyde, which stabilizes the peptide attachment to the wells, was added for 15 minutes. The glutaraldehyde solution was then removed, the wells washed with buffer, and a mixture of glycine and bovine serum albumin (BSA) was added which served to block unbound sites in the wells and minimize spurious reactions during the ELISA test per se. After a final washing step, the plates were ready to use.
(§2) A convenient variation of known ELISA methods was used with the microtiter plates prepared as above. Serum samples from individuals which had been diluted 1:50 in PBS (phosphate buffered saline) containing 0.05% polyoxyethylenesorbitan monolaurate (Tween 20) and 1% BSA were added to each well and allowed to incubate for 90 minutes at 37° C. in a humidified atmosphere. The diluted serum samples were then removed from the plates and the wells washed three times with PBS containing 0.05% Tween 20. A conjugated anti-human immunoglobulin (Ig) antibody was then added to the wells and allowed to incubate for 90 minutes. The conjugated antibody was produced in a goat or rabbit and was specific for human IgG, IgM, immunoglobulin light chains, or combinations thereof. Preferably, alkaline-phophatase conjugated anti-human IgG (from Dakopatts) diluted 1:500 for use in PBS containing 0.05% Tween 20 and 1% BSA was used in the ELISA. After the conjugate had incubated a sufficient length of time to react with bound human antibodies, the plates were washed three times as above. In order to detect antibodies to HTLV-1 in the human serum that react with the peptide gpAHTLV-1 used as the antigen, (i.e. positive reactions), a chromogenic substrate, alkaline phosphatase substrate (Sigma Cat. No. 104 tablets) dissolved in a Na carbonate/MgCl2 buffer and adjusted to a concentration of 1 μg/ml which is cleaved by the alkaline phosphatase enzyme attached to the anti-human Ig antibody to yield a colored product, was added. After incubation for approximately 40 minutes at room temperature, positive reactions indicated the presence of antibodies in the sample reactive with the antigen. A yellow to orange to reddish-brown color in each well indicating a positive reaction, was read in a spectrophotometer at 405 nm to quantify the reaction. Spectrophotometric readings were adjusted to correct for background reactions.
Peptides gpAHTLV-1, gpBHTLV-1, gpCHTLV-1, synthesized as described in Example 1, were run in parallel ELISA tests as described in Example 2 against 6 serum samples positive for antibodies to HTLV-1, 8 serum samples positive for antibodies to HIV-1 and 10 blood donor sera negative for HIV-1/HIV-2.

[2] = storage stability of peptide-coated microtiter plates; format: physicochemical; conditions: peptide-coated microtiter plates stored for several months
Protocol: as §1

[3] = test system: HTLV-1 positive serum samples; assay: immunoreactivity screening of eight synthesized peptides A-H with HTLV-1 positive sera; format: binding, human
Excerpt: The four peptides were selected from among eight different synthesized peptides designated A-H which correspond to the HTLV-1 envelope glycoprotein. These peptides were selected using various criteria similar to the selection of useful HIV-1 or HIV-2 peptides, e.g. proximity to or containing a cysteine residue (location of cysteine in similar proteins from related organisms being relatively invariant) and proximity to glycosylation sites. Although such criteria for selection of peptides can rule out potentially nonuseful peptides and indicate potentially useful peptides, further testing was required to identify which of the eight peptides would display immunoreactivity to HTLV-1 positive serum samples. The eight peptides were synthesized in the priority A through H with the […] believed to be least antigenic based on the above-criteria.

[4] = test system: antibodies to HTLV-1; assay: ELISA reactivity of gpHHTLV-1 with confirmed positive and true negative sera/CSF (Table 3); format: binding, human
Protocol: as §1, §2
Peptide gpHHTLV-1 having the amino acid sequence: […]OH was synthesized as described in Example 1 and used in an ELISA test as described in Example 2 to measure its immunologic reactivity against confirmed Japanese HTLV-sera and sera from U.S.A. and Europe from patients with Adult T-cell Leukemia Tropical Spastic Paraparesis (TSP) and cerebrospinal fluids (CSF).

[5] = test system: antibodies to HTLV-1; assay: ELISA absorbance on Japanese HTLV-1 sera using gpHHTLV-1 (Table 4); format: binding, human; conditions: serum 1248, negative control, Western blot -; diluted 1/50
Protocol: as §1
(§3) A convenient variation of known ELISA methods was used with the microtiter plates prepared as above. […] A yellow to orange to reddish-brown color in each well indicating a positive reaction, was read in a spectrophotometer at 405 nm to quantify the reaction. Spectrophotometric readings were adjusted to correct for background reactions.
Absorbance values on Japanese HTLV-1 sera were measured in ELISA using gpHHTLV-1 as well as Du-Pont HTLV-1 ELISA and Western blot. […]

[6] = test system: antibodies to HTLV-1; assay: ELISA absorbance on sera and CSF from patients with ATL and TSP using gpHHTLV-1 (Table 5); format: binding, human; conditions: neg CSF 8, 19, 21; diluted 1/20
Protocol: as §1, §3
Absorbance values on sera and CSF from patients with ATL and TSP were measured in ELISA using gpHHTLV-1 sera diluted 1/50, CSF sera was diluted 1/20.

[7] = test system: HTLV-1 patient sera; conditions: reactive/tested; Palker et al., 1986; cited from earlier work
[8] = test system: sera from HTLV-1 positive patients; conditions: reactive/tested; Copeland et al., 1986; cited from earlier work

## Gly-Leu-Asp-Leu-Leu-Phe-Trp-Glu-Gln-Gly-Gly-Leu-Cys-Lys-Ala-Leu-Gln-Glu-Gln-Cys-Arg-Phe-Pro-Asn-Cys-OH (GLDLLFWEQGGLCKALQEQCRFPNC-OH; cysteine pairing not given here) [gpAHTLV-1]
[1]
  Mean O.D.405 of Negative Sera: 0.124 O.D.405
  cut off = Mean O.D.405 of Negative Sera + 6 × S.D.: 0.490 O.D.405
  confirmed positive HTLV-1 serum samples reacted with peptide: 6/6
[2]
  antigenic activity of coated peptide after storage (in words): without any decrease in antigenic activity
[3]
  usefulness for diagnosis of HTLV-1 infection (in words): useful for diagnosis of HTLV-1 infection

## Leu-Asn-Thr-Glu-Pro-Ser-Gln-Leu-Pro-Pro-Thr-Ala-Pro-Pro-Leu-Leu-Pro-His-Ser-Asn-Leu-Asp-His-Ile-Cys-OH (LNTEPSQLPPTAPPLLPHSNLDHIC-OH) [gpHHTLV-1]
[4]; ATL CSF, positive/tested
  Positive in ELISA: 1/1
[4]; Japanese HTLV-1 sera
  Positive in ELISA (percent): 69%
[4]; Japanese HTLV-1 sera, positive/tested
  Positive in ELISA: 22/32
[4]; TSP CSF, positive/tested
  Positive in ELISA: 4/4
[4]; TSP sera, positive/tested
  Positive in ELISA: 4/4
[4]; Table 3 as summarised in text
  known positive sera confirmed HTLV-1 positive (in words): all known positive sera were confirmed HTLV-1 positive
[4]; true negative: 4 EB virus IgM positive sera
  Positive in ELISA: 0/4
[4]; true negative: 4 Leukemia patients sera
  Positive in ELISA: 0/4
[4]; true negative: 4 Rheumatoid factor positive sera
  Positive in ELISA: 0/4
[4]; true negative: 4 Transplant recipients sera
  Positive in ELISA: 0/4
[4]; true negative: 8 CSF (aseptic meningitis)
  Positive in ELISA: 0/8
[4]; true negative: 8 HIV-2 positive sera
  Positive in ELISA: 0/8
[4]; true negative: 28 blood donor sera
  Positive in ELISA: 0/28
[4]; true negative: 30 HIV-1 positive sera
  Positive in ELISA: 0/30
[5]
  Absorbance values in gpHHTLV-1 ELISA: 0.109
[3]
  usefulness for diagnosis of HTLV-1 infection (in words): useful for diagnosis of HTLV-1 infection
[6]
  gpHHTLV-1 ELISA absorbance: 0.033 and 0.039 and 0.056

## PYVEPTAPQVL [SP-71]
[7]
  HTLV-1 patient sera reacting in RIA: 8/9

## Pro-Pro-Phe-Ser-Leu-Ser-Pro-Val-Pro-Thr-Leu-NH2 (PPFSLSPVPTL-NH2) [SP-70]
[8]
  sera from HTLV-1 positive patients reacting: 4/12

## X-Trp-Thr-His-Cys-Phe-Asp-Pro-Gln-Ile-Gln--Ala-Ile-Val-Ser-Ser-Pro-Cys-His-Asn-Ile-Leu-Y-Z (WTHCFDPQIQAIVSSPCHNIL; not fully specified (N-terminus, C-terminus); cysteine pairing not given here; also: end groups X, Y, Z left open in the general formula) [gpBHTLV-1]
[1]
  Mean O.D.405 of Negative Sera: 0.088 O.D.405
  cut off = Mean O.D.405 of Negative Sera + 6 × S.D.: 0.298 O.D.405
  confirmed positive HTLV-1 serum samples reacted with peptide: 5/6
[3]
  usefulness for diagnosis of HTLV-1 infection (in words): useful for diagnosis of HTLV-1 infection

## X-Tyr-Thr-Cys-Ile-Val-Cys-Ile-Asp-Arg-Ala-Ser-Leu-Ser-Thr-Trp-His-Val-Leu- Tyr-Ser-Pro-Y-Z (YTCIVCIDRASLSTWHVLYSP; not fully specified (N-terminus, C-terminus); cysteine pairing not given here; also: end groups X, Y, Z left open in the general formula) [gpCHTLV-1]
[1]
  Mean O.D.405 of Negative Sera: 0.116 O.D.405
  cut off = Mean O.D.405 of Negative Sera + 6 × S.D.: 0.368 O.D.405
  confirmed positive HTLV-1 serum samples reacted with peptide: 5/6
[3]
  usefulness for diagnosis of HTLV-1 infection (in words): useful for diagnosis of HTLV-1 infection
